# Test results published in US20240374749A1, “ANTIBODY-EXATECAN CONJUGATES” (Glykos Finland Oy, priority 2023, published 2024).
# Read-outs that look alike come from different tables or passages of the source.
# B1: FLExM01: flanvotumab-exatecan ADC with ExM linker-payload, DAR≈8 (conjugate, chains of the INN, looked up)
# VH: QVQLVQSGSELKKPGASVKISCKASGYTFTSYAMNWVRQAPGQGLESMGWINTNTGNPTYAQGFTGRFVFSMDTSVSTAYLQISSLKAEDTAIYYCAPRYSSSWYLDYWGQGTLVTVSS
# VL: EIVLTQSPATLSLSPGERATLSCRASQSVSSYLAWYQQKPGQAPRLLIYDASNRATGIPARFSGSGSGTDFTLTISSLEPEDFAVYYCQQRSNWLMYTFGQGTKLEIK
# modifications: exatecan ExM linker-payload, DAR 8
# B2: FLDxM01: Flanvotumab-deruxtecan ADC, DAR≈8 (conjugate, chains of the INN, looked up)
# VH: B1 VH
# VL: B1 VL
# modifications: deruxtecan, DAR 8
# B3: Flanvotumab: naked antibody, parent of the anti-TYRP-1 ADC (antibody, chains of the INN, looked up, V domains shown)
# VH: B1 VH
# VL: B1 VL
# How the values were obtained:
# [1] = test system: HER2+ SK-BR-3 breast cancer cells; experiment: In vitro cytotoxicity assay (PrestoBlue), Example 9 (FIG. 5); assay type: cell-based; details: Homo sapiens
# Protocol: (§1) HER2+ SK-BR-3 breast cancer cells (ATCC), HCC1954 breast cancer cells (CRL-2338, ATCC), JIMT-1 breast cancer cells (DSMZ) and SKOV-3 ovarian cancer cells (ATCC) were cultured essentially according to the providers' instructions. After incubation with ADCs, cell viability was determined using PrestoBlue reaction using manufacturer's instructions. Cell viability data data was transferred to GraphPad Prism to determine IC50 values. Exatecan (mesylate salt) and DXd (free deruxtecan payload) were purchased from MedChemExpress.
# [2] = test system: HER2+ HCC1954 breast cancer cells; experiment: In vitro cytotoxicity assay (PrestoBlue), Example 9 (FIG. 6); assay type: cell-based; details: Homo sapiens
# Protocol: as §1
# [3] = test system: HER2+ JIMT-1 breast cancer cells; experiment: In vitro cytotoxicity assay (PrestoBlue), Example 9 (FIG. 7); assay type: cell-based; details: Homo sapiens
# Protocol: as §1
# [4] = test system: HER2+ SKOV-3 ovarian cancer cells; experiment: In vitro cytotoxicity assay (PrestoBlue), Example 9 (FIG. 8); assay type: cell-based; details: Homo sapiens, SK-OV-3
# Protocol: as §1
# MOLM-13 cells = experiment: MOLM-13 xenograft model; details: for signs of toxicity: single i.v. dose, clinical signs and general behavior
# Protocol: The study was performed at the TCDM, University of Turku, Finland, according to the appropriate ethical committee approval. Cells for inoculation to mice were prepared in vigorous exponential growth phase. 2 million MOLM-13 cells in 50% Matrigel were inoculated s.c. to the flank of each mouse (female athymic nude mice between 8-10 weeks of age). Clinical signs and general behavior of the animals were observed regularly. […] Tumor growth was followed by palpation. After caliper measurement, tumor volume was calculated according to 0.5×length×width^2. […] Mice were evenly divided into study groups, 6 mice in each group, so that each group received similar distribution of different-sized tumors and the average tumor volumes were similar in each group. Intravenous (i.v.) treatment in PBS was given once on day 1 of treatment as a single dose regimen (on day 8 after tumor inoculation). The experiment lasted to day 46 after treatment (day 54 after tumor inoculation).
# [5] = Aggregation status by size-exclusion chromatography (SEC-HPLC); assay type: physicochemical
# Protocol: Aggregation status of FLExM01 was evaluated by size-exclusion chromatography (SEC-HPLC; FIG. 2A), showing very low aggregation with high-molecular weight aggregate level of 1.6%. Drug-to-Antibody Ratio (DAR) was determined by reversed-phase chromatography (RP-HPLC; FIG. 2B), showing homogeneous conjugation to DAR=8.
# [6] = Hydrophobic interaction chromatography (HIC-HPLC) of flanvotumab ADCs; assay type: physicochemical; details: closer to naked antibody = more hydrophilic
# Source text: Flanvotumab-deruxtecan ADC was generated essentially similarly as FLExM above using deruxtecan linker-payload (DxM, MedChemExpress, Sweden; Scheme 1.4).
# HIC-HPLC analysis using TSKgel ButylNPR column was done with Äkta HPLC purifier system.
# SK-MEL-30 melanoma cells = experiment: SK-MEL-30 human melanoma xenograft model; assay type: in vivo, athymic mice; details: single i.v. 10 mg/kg dose
# Protocol: SK-MEL-30 human melanoma xenograft model (FIG. 4A): The animal model were performed at the University of Helsinki, Finland, according to the appropriate ethical committee approval. SK-MEL-30 melanoma cells, 2 million cells/mouse, were inoculated subcutaneously (s.c.) to athymic mice.
# [7] = Maleimide self-stabilization in storage formulation; assay type: physicochemical; details: storage formulation of PBS pH 7.4
# [8] = single i.v. 10 mg/kg dose, day 54 after inoculation
molecule,measurement,setting,value
"CC[C@@]1(O)C(=O)OCc2c1cc1n(c2=O)Cc2c-1nc1cc(F)c(C)c3c1c2[C@@H](N)CC3 [exatecan, Exatecan]",IC50,[1],0.87 nM
same,IC50,"[2]; HCC1954 cells, FIG. 6, read-out: IC50",5 to 8 nM
same,IC50,[3],3.1 nM
same,IC50,[4],4.7 nM
"CC[C@@]1(O)C(=O)OCc2c1cc1n(c2=O)Cc2c-1nc1cc(F)c(C)c3c1c2[C@@H](NC(=O)CO)CC3 [DXd, 2-hydroxyacetoyl exatecan]",IC50,[1],4.3 nM
same,IC50,[2]; HCC1954,5 to 8 nM
same,IC50,[3],18 nM
same,IC50,[4],9.5 nM
"LNDxM: lintuzumab-deruxtecan ADC DAR=8, maleimides not stabilized; 01-03 are batches [reference compound]","deaths due to tumor growth, %",MOLM-13 cells; single i.v. 10 mg/kg dose,17%
same,tumor-free mice at the end of the study (mice out of 6),MOLM-13 cells; [8],2/6
same,"tumor-free mice at the end of the study, %",MOLM-13 cells; [8],33%
same,deaths due to tumor growth (mice out of 6),"MOLM-13 cells; single i.v. 10 mg/kg dose, death on day 47 after tumor inoculation",⅙
same,signs of toxicity,MOLM-13 cells,No signs of toxicity were recorded
Lintuzumab: humanized recombinant antibody produced in CHO cells; anti-CD33,tumor growth inhibition (in words),"MOLM-13 cells; single i.v. 10 mg/kg dose, s.c. tumors about 120 mm^3",only slight inhibitory activity to tumor growth
same,signs of toxicity,MOLM-13 cells,No signs of toxicity were recorded
B1,high-molecular weight aggregate level,[5]; SEC-HPLC,1.6%
same,HIC-HPLC elution volume,[6],6.5 mL
same,toxicities observed,SK-MEL-30 melanoma cells,No toxicities were observed
same,tumor growth inhibition (in words),SK-MEL-30 melanoma cells; s.c. tumors about 200 mm^3,inhibited markedly more in the ADC-treated mice than either the antibody-treated or non-treated mice
same,maleimide self-stabilization (in words),[7],self-stabilized by maleimide hydrolysis
B2,aggregates (in words),"[5]; MALDI-TOF MS, SEC-HPLC and RP-HPLC",low aggregates
same,HIC-HPLC elution volume,[6],7.8 mL
B3,toxicities observed,SK-MEL-30 melanoma cells,No toxicities were observed
